Test results reported in ChEMBL document CHEMBL1137088, “Distamycin analogues with enhanced lipophilicity: synthesis and antimicrobial activity” (2004).
In brackets after ≈: the same amount, converted by molar mass. Activity calls are given as the source filed them. No cut-off for these calls is given here.

Assays:
[1] = Antibacterial activity against Proteus vulgaris NCTC 4175 strain; na = not active; type: functional
Aspergillus nidulans = assay: Antifungal activity against Aspergillus nidulans CABI 0160037 strain; type: functional
Aspergillus niger = assay: Antifungal activity against Aspergillus niger IMI17454 strain.; type: functional; settings: Aspergillus niger; read-out: MIC
Staphylococcus aureus [2] = assay: Antibacterial activity against Staphylococcus aureus NCTC 6571 strain.; type: functional
Enterobacter cloacae = assay: Antibacterial activity against Enterobacter cloacae NCTC 10005 strain.; type: functional, organism-based
Staphylococcus aureus [3] = assay: Antibacterial activity against MRSA PHLS M1 strain; na = not active; type: functional, organism-based
[4] = system: Mycolicibacterium fortuitum; assay: Antibacterial activity against Mycobacterium fortuitum NCTC 10394 strain=; type: functional
Enterococcus faecalis = assay: Antibacterial activity against Streptococcus faecalis NCTC 775 strain=; type: functional
Klebsiella aerogenes = assay: Antibacterial activity against Klebsiella aerogenes WRL CN 345 strain.; type: functional, WRL CN 375; settings: Klebsiella aerogenes, WRL CN 375; read-out: MIC
Escherichia coli = assay: Antibacterial activity against Escherichia coli NCTC 9001 strain.; type: functional, organism-based
[5] = Antifungal activity against Candida albicans NCPF 3179 strain; na = not active; type: functional

MIC [1]: inactive
MIC (Aspergillus nidulans): 69.8 µM (≈ 42.1 µg/mL)
MIC (Aspergillus niger): 140 µM (≈ 84.4 µg/mL)
MIC (Staphylococcus aureus [2]): 69.8 µM (≈ 42.1 µg/mL)
MIC (Enterobacter cloacae): inactive
MIC (Staphylococcus aureus [3]): inactive
MIC [4]: 140 µM (≈ 84.4 µg/mL)
MIC (Enterococcus faecalis): 140 µM (≈ 84.4 µg/mL)
MIC (Klebsiella aerogenes): 140 µM (≈ 84.4 µg/mL)
MIC (Escherichia coli): inactive
MIC [5]: inactive
Compound: COc1cccc(C(=O)Nc2cc(C(=O)Nc3cc(C(=O)Nc4cc(C(=O)NCCCN(C)C)n(C)c4)n(C)c3)n(C)c2)c1
